The NIST ThermoML archive (doi:10.1021/je900034d)
± gives the expanded uncertainty stated by the source.

Columns and labels:
[1] = Crystal; DTA
[2] = Molar enthalpy of transition or fusion; settings: Crystal; DSC

Normal melting temperature [1] | Molar enthalpy of transition or fusion [2] | Structure (SMILES)
59.7 ± 0.5 °C | 4.16 ± 0.215 kcal/mol | c1ccc(-c2ccncc2)nc1 [2,4'-bipyridine]
172.4 ± 0.5 °C | 5.21 ± 0.263 kcal/mol | c1cnc2ccc3ncccc3c2c1 [4,7-phenanthroline]
61.0 ± 0.5 °C | 4.49 ± 0.167 kcal/mol | c1ccc(-c2ccncn2)cc1 [4-phenylpyrimidine]
104.4 ± 0.5 °C | 3.85 ± 0.478 kcal/mol | c1cc(-c2ccncc2)ccn1 [γ,γ'-bipyridyl]

Structure (SMILES) | Normal melting temperature [1] | Molar enthalpy of transition or fusion [2]
c1cnc2c(c1)ccc1ncccc12 [1,5-diazaphenanthrene] | 77.2 ± 0.5 °C | 4.35 ± 0.167 kcal/mol
